Experiment [1] has as its target T1, CRTH2 (Homo sapiens, UniProt Q9Y5Y4).
T1 construct: expressed in transfected cells; host or cells: Chinese Hamster Ovary (CHO) cells, G418 selected
T1 sequence (Q9Y5Y4 1-395): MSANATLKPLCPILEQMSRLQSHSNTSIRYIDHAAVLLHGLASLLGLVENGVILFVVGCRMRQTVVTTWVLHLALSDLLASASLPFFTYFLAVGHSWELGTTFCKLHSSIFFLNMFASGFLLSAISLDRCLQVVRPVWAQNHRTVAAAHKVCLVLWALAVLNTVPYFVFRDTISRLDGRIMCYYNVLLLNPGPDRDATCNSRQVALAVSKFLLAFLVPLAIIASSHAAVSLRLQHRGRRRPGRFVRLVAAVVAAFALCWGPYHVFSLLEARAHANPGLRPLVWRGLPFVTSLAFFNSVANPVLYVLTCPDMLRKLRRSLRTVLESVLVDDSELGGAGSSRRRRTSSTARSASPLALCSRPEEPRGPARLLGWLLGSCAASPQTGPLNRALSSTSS
Description: [3H]PGD2 radioligand binding on CHO/CRTH2 cell membranes. The note with it: competition versus [3H]PGD2, CHO/CRTH2 membranes. Here is the method: (§1) Chinese Hamster Ovary cells were transfected with CRTH2 or DP receptors (CHO/CRTH2 and CHO/DP) and were maintained in culture in a humidified atmosphere at 37° C. (5% CO2) in Minimum Essential Medium (MEM) supplemented with 10% foetal bovine serum, 2 mM glutamine, and 1 mg ml^−1 active G418. The cells were passaged every 2-3 days. For radioligand binding assay, cells were prepared in triple-layer flasks or in 175 cm^2 square flasks (for membrane preparation). For calcium mobilisation assay, cells were grown in a 96 well plate 24 h prior to the assay at a density of 80,000 cells per well.
(§2) Membranes were prepared either from CHO/CRTH2 and CHO/DP cells, or from platelets (as a source of TP receptors). CHO cells grown to confluency were washed with PBS and detached using a Versene solution (15 ml per flask). When the cells were grown in 175 cm^2 square flask, they were collected by scrapping in PBS. The cell suspensions were centrifuged (1,700 rpm, 10 min, 4° C.) and resuspended in 15 ml of buffer (1×HBSS, supplemented with 10 mM HEPES, pH 7.3). Cell suspensions were then homogenised using an Ultra Turrax at setting 4-6 for 20 s. The homogenate was centrifuged at 1,700 rpm for 10 min and the supernatant was collected and centrifuged at 20,000 rpm for 1 h at 4° C. The resulting pellet was resuspended in buffer and stored at −80° C. in aliquots of 200-500 μl. The protein concentration was determined by the method of Bradford (1976), using bovine serum albumin as standard. The platelets were washed by centrifugation at 600×g for 10 min and resuspended in ice-cold assay buffer (10 mM Tris-HCl, pH 7.4, 5 mM Glucose, 120 mM NaCl, 10 μM indomethacin) and directly centrifuged at 20,000 rpm for 30 min at 4° C. The resulting pellet was treated as described above.
(§3) [3H]PGD2 (160 Ci/mmol) binding experiments were performed on membranes prepared as described above. Assays were performed in a final volume of 100 μl of buffer (1×HBSS/HEPES 10 mM, pH 7.3). Cell membranes (15 μg). Cell membranes […] were preincubated at room temperature with varying concentration of competing ligand for 15 min. [3H]PGD2 ([…]) was then added and the incubation continued for a further one hour at room temperature. The reaction was terminated by the addition of 200 μl ice-cold assay buffer to each well, followed by rapid filtration through Whatman GF/B glass fibre filters using a Unifilter Cell harvester (PerkinElmer Life Sciences) and six washes of 300 μl of ice-cold buffer. The Unifilter plates were dried at room temperature for at least 1 h and the radioactivity retained on the filters was determined on a Beta Trilux counter (PerkinElmer Life Sciences), following addition of 40 μl of Optiphase Hi-Safe 3 (Wallac) liquid scintillation. Non specific binding was defined in the presence of […] unlabelled PGD2. Assays were performed in duplicate.

Experiment [2] concerns the target T1, CRTH2. Description: Calcium mobilisation assay in CHO/CRTH2 cells (PGD2-induced calcium flux). Type of experiment: cell-based. The following applies: inhibition of PGD2-induced calcium flux, read-out: CRTH2 Ca flux IC50. Here is the method:
as §1
Cells were seeded onto poly-D-lysine coated 96-well plates at a density of 80,000 cells per well and incubated at 37° C. overnight to allow the cells to adhere. Cells were washed twice with HBSS and incubated for 1 h at 37° C. in 100 μl HBSS and 100 μl calcium-3-dye (Molecular Devices) solution, supplemented with 4 mM probenecid. Changes in fluorescence were monitored over a 50 s time course with agonist addition at 17s using a Flexstation (Molecular Devices).
In general terms: Calcium assays in cells follow changes in intracellular calcium, usually with a dye or a luminescent sensor.

The target in experiment [3] is T2, DP receptor (Homo sapiens, UniProt Q13258).
T2 construct: expressed in transfected cells; host or cells: Chinese Hamster Ovary (CHO) cells, G418 selected
T2 sequence (Q13258 1-359): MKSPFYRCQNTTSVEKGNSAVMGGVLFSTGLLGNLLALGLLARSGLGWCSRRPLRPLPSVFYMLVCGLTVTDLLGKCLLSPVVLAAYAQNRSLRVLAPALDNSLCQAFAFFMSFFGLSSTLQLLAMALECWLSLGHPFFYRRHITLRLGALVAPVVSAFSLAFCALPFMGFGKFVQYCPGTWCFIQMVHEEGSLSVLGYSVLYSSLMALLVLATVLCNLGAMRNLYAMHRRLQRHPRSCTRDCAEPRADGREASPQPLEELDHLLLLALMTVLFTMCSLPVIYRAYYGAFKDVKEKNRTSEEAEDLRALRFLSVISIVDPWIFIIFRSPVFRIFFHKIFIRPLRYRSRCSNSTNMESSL
The experiment is described as follows: [3H]PGD2 radioligand binding on CHO/DP cell membranes. The note with it: competition versus [3H]PGD2, CHO/DP membranes. Here is the method: as §1, §2, §3

A value given as a limit tells only on which side of the number the result lay.

This passage reports Ki and IC50 results from patent publication US20070232681A1, “Compounds Having Crth2 Antagonist Activity” (Oxagen Limited, priority 2003, published 2007).

Turning to `CCCCS(=O)(=O)c1c(C)n(CC(=O)O)c2ccc(F)cc12` [Compound 1, [3-(Butane-1-sulfonyl)-5-fluoro-2-methyl-indol-1-yl]-acetic acid], the Ki (in general, the dissociation constant of the complex between target and ligand, obtained from inhibition or displacement) is 0.192 µM in experiment [1] and over 10 µM in experiment [3]. For the same molecule, in experiment [2], the IC50 (commonly the concentration that inhibits the measured activity by half) was 0.28 µM.

For the molecule `Cc1c(S(=O)(=O)c2ccc(-c3ccccc3)cc2)c2cc(F)ccc2n1CC(=O)O` [Compound 2], the values for the Ki in experiment [1] and in experiment [3] were 0.075 µM and over 10 µM, respectively. Besides, the 50% inhibitory concentration (IC50) in experiment [2] came out at 0.163 µM.

Take `Cc1c(S(=O)(=O)CCS(C)(=O)=O)c2cc(F)ccc2n1CC(=O)O` [Compound 5, [5-Fluoro-3-(2-methanesulfonyl-ethanesulfonyl)-2-methyl-indol-1-yl]-acetic acid]: the inhibitory constant (Ki) is 0.089 µM in experiment [1] and over 10 µM in experiment [3]. Moreover, the IC50 in experiment [2] came to 0.268 µM.

On to `Cc1c([S+]([O-])c2nc3ccccc3s2)c2cc(F)ccc2n1CC(=O)O` (stereo not shown) [Compound 7, [3-(Benzothiazole-2-sulfinyl)-5-fluoro-2-methyl-indol-1-yl]-acetic acid], for which, in experiment [1], the Ki is 0.054 µM. Moreover, the half-maximal inhibitory concentration (IC50) in experiment [2] came to 0.163 µM.

Molecule `Cc1c(S(=O)(=O)c2ccc3ccccc3n2)c2cc(F)ccc2n1CC(=O)O` [Compound 8, [5-Fluoro-2-methyl-3-(quinoline-2-sulfonyl)-indol-1-yl]-acetic acid] returned a Ki in experiment [1] of 0.249 µM. Besides, the IC50 in experiment [2] worked out at 0.33 µM.

For the molecule `Cc1c(S(=O)(=O)Cc2ccccc2)c2cc(F)ccc2n1CC(=O)O` [Compound 10, (5-Fluoro-2-methyl-3-phenylmethanesulfonyl-1H-indol-1-yl)-acetic acid], in experiment [1], the Ki is 0.006 µM. Besides, the IC50 in experiment [2] turned out to be 0.079 µM.

Regarding `Cc1c(S(=O)(=O)Nc2ccc(Cl)cc2)c2cc(F)ccc2n1CC(=O)O` [Compound 11, [3-(4-Chloro-phenylsulfamoyl)-5-fluoro-2-methyl-indol-1-yl]-acetic acid], the Ki in experiment [1] is 0.051 µM; in experiment [3], over 10 µM. Moreover, in experiment [2], the IC50 was found to be 0.197 µM.

As to `Cc1c(S(=O)(=O)Nc2cccc(Cl)c2)c2cc(F)ccc2n1CC(=O)O` [Compound 12, [3-(3-Chloro-phenylsulfamoyl)-5-fluoro-2-methyl-indol-1-yl]-acetic acid], the Ki in experiment [1] was 0.045 µM; in experiment [3], over 10 µM. In addition, in experiment [2], the IC50 was found to be 0.082 µM.

On to `Cc1c(S(=O)(=O)Nc2ccc(F)cc2)c2cc(F)ccc2n1CC(=O)O` [Compound 13, [3-(4-Fluoro-phenylsulfamoyl)-5-fluoro-2-methyl-indol-1-yl]-acetic acid], for which, in experiment [1], the affinity, expressed as Ki, was 0.182 µM. Also, the 50% inhibitory concentration (IC50) in experiment [2] is 1.65 µM.

In the case of `Cc1c(S(=O)(=O)Nc2ccccc2Cl)c2cc(F)ccc2n1CC(=O)O` [Compound 14, [3-(2-Chloro-phenylsulfamoyl)-5-fluoro-2-methyl-indol-1-yl]-acetic acid], in experiment [1], affinity was put at a Ki of 0.225 µM. Also, the IC50 in experiment [2] came out at 0.39 µM.

For `Cc1cccc(NS(=O)(=O)c2c(C)n(CC(=O)O)c3ccc(F)cc23)c1` [Compound 21, (5-Fluoro-2-methyl-3-m-tolylsulfamoyl-indol-1-yl)-acetic acid], the Ki in experiment [1] is 0.176 µM; in experiment [3], over 10 µM. In addition, the IC50 in experiment [2] was 1.06 µM.
